Active and inactive are the calls of the source. Rule as the data show it, for most assays here: actives have a measured Kd and inactives only a lower limit. A value given as a limit tells only on which side of the number the result lay.

For orientation: Kd means the constant that tells how readily two partners part at equilibrium.

Assay [1] deals with Serine/threonine-protein kinase MRCK gamma (Homo sapiens, UniProt Q6DT37).
The target of assay [2] is ATP-dependent RNA helicase DDX3X (Homo sapiens, UniProt O00571).
In assay [3] the target is Dual specificity tyrosine-phosphorylation-regulated kinase 1A (Homo sapiens, UniProt Q13627).
The target of assay [4] is T1, Mitogen-activated protein kinase kinase kinase kinase 2 (Homo sapiens, UniProt Q12851).
T1 sequence (Q12851 whole entry): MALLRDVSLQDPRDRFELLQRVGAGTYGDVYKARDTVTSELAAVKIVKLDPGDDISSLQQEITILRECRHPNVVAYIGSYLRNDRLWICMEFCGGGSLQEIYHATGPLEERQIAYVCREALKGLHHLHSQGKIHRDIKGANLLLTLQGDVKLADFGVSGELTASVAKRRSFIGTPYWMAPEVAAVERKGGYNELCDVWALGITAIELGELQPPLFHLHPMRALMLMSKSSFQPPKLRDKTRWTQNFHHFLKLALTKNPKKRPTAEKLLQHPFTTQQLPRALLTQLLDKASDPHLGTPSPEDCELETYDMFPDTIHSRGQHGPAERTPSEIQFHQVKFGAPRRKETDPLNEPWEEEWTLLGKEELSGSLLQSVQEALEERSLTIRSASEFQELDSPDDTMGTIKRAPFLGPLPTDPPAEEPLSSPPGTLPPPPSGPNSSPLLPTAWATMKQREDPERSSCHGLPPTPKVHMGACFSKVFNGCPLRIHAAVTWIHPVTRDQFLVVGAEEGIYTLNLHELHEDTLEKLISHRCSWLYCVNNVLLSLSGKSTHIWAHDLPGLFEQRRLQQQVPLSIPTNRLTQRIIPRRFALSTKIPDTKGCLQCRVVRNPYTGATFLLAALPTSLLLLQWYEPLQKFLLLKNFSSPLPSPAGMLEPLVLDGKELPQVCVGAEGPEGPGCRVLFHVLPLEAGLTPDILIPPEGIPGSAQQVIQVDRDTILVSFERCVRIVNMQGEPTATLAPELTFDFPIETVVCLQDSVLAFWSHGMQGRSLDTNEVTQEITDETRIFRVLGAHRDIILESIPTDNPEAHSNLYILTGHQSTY

Assay [5] addresses Hepatocyte growth factor receptor (Homo sapiens, UniProt P08581).
Assay [6] concerns the target Protein kinase C beta type (Homo sapiens, UniProt P05771).
For assay [7], the target named is T2, Serine/threonine-protein kinase D2 (Homo sapiens, UniProt Q9BZL6).
T2 sequence (Q9BZL6 whole entry): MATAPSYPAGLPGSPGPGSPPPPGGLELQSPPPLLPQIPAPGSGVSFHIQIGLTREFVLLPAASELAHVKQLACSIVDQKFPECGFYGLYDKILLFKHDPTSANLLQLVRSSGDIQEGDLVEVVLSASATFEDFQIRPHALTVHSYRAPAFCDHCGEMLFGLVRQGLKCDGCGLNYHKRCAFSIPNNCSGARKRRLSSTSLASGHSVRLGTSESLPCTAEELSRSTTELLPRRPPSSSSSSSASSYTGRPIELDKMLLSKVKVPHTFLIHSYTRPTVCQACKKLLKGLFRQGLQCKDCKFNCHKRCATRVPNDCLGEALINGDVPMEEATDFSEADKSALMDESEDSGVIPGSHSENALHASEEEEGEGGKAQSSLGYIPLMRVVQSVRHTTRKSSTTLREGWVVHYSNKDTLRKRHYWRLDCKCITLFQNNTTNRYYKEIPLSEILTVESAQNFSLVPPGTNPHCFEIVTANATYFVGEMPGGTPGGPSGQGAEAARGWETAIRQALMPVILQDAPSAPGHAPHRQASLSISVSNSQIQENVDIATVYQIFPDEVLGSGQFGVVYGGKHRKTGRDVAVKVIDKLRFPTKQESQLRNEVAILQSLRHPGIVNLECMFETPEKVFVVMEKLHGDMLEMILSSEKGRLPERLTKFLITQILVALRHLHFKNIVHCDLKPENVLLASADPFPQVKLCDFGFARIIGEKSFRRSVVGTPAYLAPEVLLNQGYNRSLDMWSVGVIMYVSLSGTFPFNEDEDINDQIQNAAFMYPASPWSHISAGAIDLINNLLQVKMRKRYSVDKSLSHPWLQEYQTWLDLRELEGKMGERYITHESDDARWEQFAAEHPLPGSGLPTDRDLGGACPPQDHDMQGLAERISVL

The target in assay [8] is Structural maintenance of chromosomes protein 2 (Homo sapiens, UniProt O95347).
Also: in the data inactive means no Kd found up to 30 µM.

Hepatocyte growth factor receptor, sequence (P08581 whole entry): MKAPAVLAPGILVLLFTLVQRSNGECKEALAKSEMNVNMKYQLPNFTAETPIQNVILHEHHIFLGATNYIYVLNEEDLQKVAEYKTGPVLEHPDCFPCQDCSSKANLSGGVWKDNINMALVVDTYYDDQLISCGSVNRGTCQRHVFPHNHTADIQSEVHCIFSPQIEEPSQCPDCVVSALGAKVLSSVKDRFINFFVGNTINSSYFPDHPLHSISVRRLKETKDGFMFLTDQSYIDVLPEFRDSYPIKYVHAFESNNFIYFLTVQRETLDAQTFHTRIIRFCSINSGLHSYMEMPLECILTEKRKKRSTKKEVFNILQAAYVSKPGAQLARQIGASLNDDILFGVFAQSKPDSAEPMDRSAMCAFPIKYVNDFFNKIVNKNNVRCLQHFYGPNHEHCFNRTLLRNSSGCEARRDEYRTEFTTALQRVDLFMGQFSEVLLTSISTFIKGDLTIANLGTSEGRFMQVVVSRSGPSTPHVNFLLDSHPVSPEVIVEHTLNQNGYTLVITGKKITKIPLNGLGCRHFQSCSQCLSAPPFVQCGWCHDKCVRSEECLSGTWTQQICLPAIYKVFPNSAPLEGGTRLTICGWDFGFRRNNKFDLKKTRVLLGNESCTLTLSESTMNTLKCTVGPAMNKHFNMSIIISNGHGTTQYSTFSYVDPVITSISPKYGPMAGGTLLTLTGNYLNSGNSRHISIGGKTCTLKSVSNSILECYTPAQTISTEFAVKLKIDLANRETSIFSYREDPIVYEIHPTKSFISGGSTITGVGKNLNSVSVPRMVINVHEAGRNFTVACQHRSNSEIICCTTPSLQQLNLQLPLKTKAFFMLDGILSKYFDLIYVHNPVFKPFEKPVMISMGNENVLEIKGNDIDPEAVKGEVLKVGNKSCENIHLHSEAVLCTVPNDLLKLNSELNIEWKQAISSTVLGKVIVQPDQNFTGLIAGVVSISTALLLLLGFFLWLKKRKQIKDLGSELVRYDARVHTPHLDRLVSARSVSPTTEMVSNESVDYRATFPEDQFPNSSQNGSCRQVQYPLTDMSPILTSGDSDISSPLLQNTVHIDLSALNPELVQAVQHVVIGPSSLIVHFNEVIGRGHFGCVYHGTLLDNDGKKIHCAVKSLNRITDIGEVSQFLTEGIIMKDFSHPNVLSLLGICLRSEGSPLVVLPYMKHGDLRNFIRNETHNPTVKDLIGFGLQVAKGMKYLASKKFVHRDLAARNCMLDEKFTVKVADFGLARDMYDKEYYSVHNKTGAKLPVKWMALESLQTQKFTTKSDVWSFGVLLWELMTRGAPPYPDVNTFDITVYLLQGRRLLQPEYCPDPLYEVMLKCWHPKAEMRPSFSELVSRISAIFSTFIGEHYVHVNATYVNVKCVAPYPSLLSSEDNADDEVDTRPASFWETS
Serine/threonine-protein kinase MRCK gamma, sequence (Q6DT37 whole entry): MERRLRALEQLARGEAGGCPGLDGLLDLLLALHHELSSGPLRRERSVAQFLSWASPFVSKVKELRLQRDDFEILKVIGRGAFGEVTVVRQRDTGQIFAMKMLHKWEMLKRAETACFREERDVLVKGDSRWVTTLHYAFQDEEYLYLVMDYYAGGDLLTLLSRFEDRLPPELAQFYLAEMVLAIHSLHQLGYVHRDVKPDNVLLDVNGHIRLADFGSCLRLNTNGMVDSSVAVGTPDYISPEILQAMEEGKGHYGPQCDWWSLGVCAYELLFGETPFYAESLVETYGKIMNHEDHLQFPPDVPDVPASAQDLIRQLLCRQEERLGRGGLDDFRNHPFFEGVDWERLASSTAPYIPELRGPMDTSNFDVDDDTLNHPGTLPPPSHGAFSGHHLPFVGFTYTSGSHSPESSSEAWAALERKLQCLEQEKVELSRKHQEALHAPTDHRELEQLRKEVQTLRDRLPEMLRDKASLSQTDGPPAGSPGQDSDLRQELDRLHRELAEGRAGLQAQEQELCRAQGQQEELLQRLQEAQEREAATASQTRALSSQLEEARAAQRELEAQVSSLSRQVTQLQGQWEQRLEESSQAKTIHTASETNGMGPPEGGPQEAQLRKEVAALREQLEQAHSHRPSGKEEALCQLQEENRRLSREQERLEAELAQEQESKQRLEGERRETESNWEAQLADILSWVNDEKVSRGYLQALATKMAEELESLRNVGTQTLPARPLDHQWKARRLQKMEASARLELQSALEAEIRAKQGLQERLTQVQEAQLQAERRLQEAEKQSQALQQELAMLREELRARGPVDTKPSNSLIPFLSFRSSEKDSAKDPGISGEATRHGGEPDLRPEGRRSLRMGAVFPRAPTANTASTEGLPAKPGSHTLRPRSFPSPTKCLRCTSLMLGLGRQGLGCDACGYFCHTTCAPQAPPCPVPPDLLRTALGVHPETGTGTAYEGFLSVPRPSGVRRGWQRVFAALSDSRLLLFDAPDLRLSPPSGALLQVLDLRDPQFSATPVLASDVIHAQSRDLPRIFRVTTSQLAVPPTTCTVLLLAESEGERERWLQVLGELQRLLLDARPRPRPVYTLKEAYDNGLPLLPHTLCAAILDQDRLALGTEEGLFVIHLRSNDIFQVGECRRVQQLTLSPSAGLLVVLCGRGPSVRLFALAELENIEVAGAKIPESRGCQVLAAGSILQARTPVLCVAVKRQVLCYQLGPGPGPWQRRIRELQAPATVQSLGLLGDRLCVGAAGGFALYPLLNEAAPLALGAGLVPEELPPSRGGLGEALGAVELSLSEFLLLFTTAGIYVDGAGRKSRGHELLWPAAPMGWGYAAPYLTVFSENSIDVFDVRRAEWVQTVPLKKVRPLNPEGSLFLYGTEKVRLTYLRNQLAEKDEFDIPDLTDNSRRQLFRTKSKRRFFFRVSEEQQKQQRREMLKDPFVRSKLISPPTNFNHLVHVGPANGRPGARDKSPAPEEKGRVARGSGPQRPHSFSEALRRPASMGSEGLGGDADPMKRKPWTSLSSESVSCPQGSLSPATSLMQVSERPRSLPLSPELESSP
ATP-dependent RNA helicase DDX3X, sequence (O00571 whole entry): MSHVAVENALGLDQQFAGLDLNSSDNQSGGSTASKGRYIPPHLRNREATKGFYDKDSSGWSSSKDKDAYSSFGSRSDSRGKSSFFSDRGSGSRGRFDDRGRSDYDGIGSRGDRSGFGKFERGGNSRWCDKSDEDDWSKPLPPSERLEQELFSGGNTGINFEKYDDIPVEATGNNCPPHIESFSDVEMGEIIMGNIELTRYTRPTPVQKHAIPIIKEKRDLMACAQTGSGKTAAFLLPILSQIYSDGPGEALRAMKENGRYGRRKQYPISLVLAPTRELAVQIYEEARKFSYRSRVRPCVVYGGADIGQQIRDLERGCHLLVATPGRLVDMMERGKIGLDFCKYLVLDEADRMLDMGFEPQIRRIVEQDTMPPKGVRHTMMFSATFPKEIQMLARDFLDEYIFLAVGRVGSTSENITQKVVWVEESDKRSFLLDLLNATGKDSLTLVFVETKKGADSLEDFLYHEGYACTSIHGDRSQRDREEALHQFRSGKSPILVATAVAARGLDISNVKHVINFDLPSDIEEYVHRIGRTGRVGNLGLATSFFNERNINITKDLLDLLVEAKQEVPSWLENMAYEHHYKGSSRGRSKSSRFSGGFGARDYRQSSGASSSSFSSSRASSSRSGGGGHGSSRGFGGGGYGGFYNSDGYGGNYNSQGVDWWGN
Structural maintenance of chromosomes protein 2, sequence (O95347 whole entry): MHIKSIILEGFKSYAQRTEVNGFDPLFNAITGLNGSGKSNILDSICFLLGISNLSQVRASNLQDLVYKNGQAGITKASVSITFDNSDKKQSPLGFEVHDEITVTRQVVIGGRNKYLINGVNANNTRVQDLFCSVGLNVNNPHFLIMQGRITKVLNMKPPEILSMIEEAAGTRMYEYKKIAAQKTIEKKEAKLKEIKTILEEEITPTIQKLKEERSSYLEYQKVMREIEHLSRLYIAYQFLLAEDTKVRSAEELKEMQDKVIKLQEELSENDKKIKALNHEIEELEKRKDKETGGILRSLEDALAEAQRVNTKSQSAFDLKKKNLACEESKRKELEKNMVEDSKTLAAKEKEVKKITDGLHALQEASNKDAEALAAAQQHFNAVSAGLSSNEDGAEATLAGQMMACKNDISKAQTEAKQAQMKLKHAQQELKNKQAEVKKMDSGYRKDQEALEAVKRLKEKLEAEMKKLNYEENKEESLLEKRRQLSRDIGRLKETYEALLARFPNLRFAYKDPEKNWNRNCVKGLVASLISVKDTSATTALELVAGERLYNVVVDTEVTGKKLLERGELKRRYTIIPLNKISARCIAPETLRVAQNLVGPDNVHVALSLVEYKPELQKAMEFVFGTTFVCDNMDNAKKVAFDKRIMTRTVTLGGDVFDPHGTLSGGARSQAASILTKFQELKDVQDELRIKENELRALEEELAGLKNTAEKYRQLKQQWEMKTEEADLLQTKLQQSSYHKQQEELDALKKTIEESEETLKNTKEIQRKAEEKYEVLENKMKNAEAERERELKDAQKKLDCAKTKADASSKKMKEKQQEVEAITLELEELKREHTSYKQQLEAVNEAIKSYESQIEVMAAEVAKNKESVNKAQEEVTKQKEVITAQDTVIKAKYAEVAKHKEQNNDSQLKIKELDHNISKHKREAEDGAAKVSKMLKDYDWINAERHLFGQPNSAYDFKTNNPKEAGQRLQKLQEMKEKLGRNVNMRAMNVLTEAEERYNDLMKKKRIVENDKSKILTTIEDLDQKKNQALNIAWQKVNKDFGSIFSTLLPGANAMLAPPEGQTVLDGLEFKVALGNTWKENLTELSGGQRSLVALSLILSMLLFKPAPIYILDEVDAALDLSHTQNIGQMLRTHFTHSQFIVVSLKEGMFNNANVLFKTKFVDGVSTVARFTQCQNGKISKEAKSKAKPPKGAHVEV

For `Cc1cccc(-c2nn3c(c2-c2ccnc4ccc(C(N)=O)cc24)CCC3)n1` [GALUNISERTIB], the Kd in assay [1], in assay [2], in assay [3], in assay [4], in assay [5] and in assay [6] was > 30 µM (inactive) throughout. Besides, the Kd in assay [7] and in assay [8] was > 30 µM (inactive) throughout.
For the compound `COc1ccc(S(=O)(=O)N(C(C)=O)c2ccccc2/C=C/c2cc[n+]([O-])cc2)cc1` [HMN-214], the Kd in assay [1] was > 30 µM (inactive); in assay [2] it was > 30 µM (inactive); in assay [3], > 30 µM (inactive); in assay [4], > 30 µM (inactive); in assay [5], 1.39 µM; in assay [6] it was > 30 µM (inactive). Also, the Kd in assay [7] and in assay [8] was > 30 µM (inactive) each time.
With `CNC(=O)c1cccc2cc(Oc3ccnc4cc(OCC5(N)CC5)c(OC)cc34)ccc12` [LUCITANIB], the Kd in assay [1], in assay [2], in assay [3], in assay [4], in assay [5] and in assay [6] was > 30 µM (inactive) each time. The Kd in assay [7] and in assay [8] was > 30 µM (inactive) throughout.
As to `NC1(c2ccc(-c3nc4ccn5c(=O)[nH]nc5c4cc3-c3ccccc3)cc2)CCC1` [MK-2206], the Kd in assay [1], in assay [2], in assay [3], in assay [4], in assay [5] and in assay [6] was > 30 µM (inactive) throughout. For the same compound, the Kd in assay [7] and in assay [8] was > 30 µM (inactive) in each case.
For the compound `CN(C[C@@H]1COCCO1)S(=O)(=O)Nc1ccc2ccc3ncc(-c4cnn(C)c4)cc3c(=O)c2c1` [MK-2461], the Kd in assay [1], in assay [2], in assay [3], in assay [4], in assay [5] and in assay [6] was > 30 µM (inactive) throughout. Besides, the Kd in assay [7] and in assay [8] was > 30 µM (inactive) throughout.
Regarding `FC(F)(F)c1ccc(/C=C/c2nc(COc3ccc(CCCCn4ccnn4)cc3)co2)cc1` [MUBRITINIB], the Kd in assay [1], in assay [2], in assay [3], in assay [4], in assay [5] and in assay [6] was > 30 µM (inactive) throughout. The Kd in assay [7] and in assay [8] was > 30 µM (inactive) in each case.
With `Cc1cnc(NC(=O)Nc2cc(Br)c(C)cc2OC[C@@H]2CNCCO2)cn1` [RABUSERTIB], the Kd in assay [1], in assay [2], in assay [3], in assay [4], in assay [5] and in assay [6] was > 30 µM (inactive) throughout. Also, the Kd in assay [7] and in assay [8] was > 30 µM (inactive) each time.
Take `CNC(=O)c1cc(Oc2ccc(NC(=O)Nc3cc(C(C)(C)C)nn3-c3ccc4ncccc4c3)c(F)c2)ccn1` [REBASTINIB]: the Kd in assay [1] is > 30 µM (inactive); in assay [2] it was > 30 µM (inactive); in assay [3], > 30 µM (inactive); in assay [4], 1.06 µM (active); in assay [5], 0.126 µM (active); in assay [6], > 30 µM (inactive). In addition, the Kd in assay [7] and in assay [8] was > 30 µM (inactive) in each case.
For `CO[C@H]1C[C@@H]2CC[C@@H](C)[C@@](O)(O2)C(=O)C(=O)N2CCCC[C@H]2C(=O)O[C@H]([C@H](C)C[C@@H]2CC[C@@H](OP(C)(C)=O)[C@H](OC)C2)CC(=O)[C@H](C)/C=C(\C)[C@@H](O)[C@@H](OC)C(=O)[C@H](C)C[C@H](C)/C=C/C=C/C=C/1C` [RIDAFOROLIMUS], the Kd in assay [1], in assay [2], in assay [3], in assay [4], in assay [5] and in assay [6] was > 30 µM (inactive) in each case. Also, the Kd in assay [7] and in assay [8] was > 30 µM (inactive) each time.
For the compound `N#CC1(c2ccc(NC(=O)c3cccnc3NCc3ccncc3)cc2)CCCC1` [RIVOCERANIB], the Kd in assay [1], in assay [2], in assay [3], in assay [4], in assay [5] and in assay [6] was > 30 µM (inactive) each time. In addition, the Kd in assay [7] and in assay [8] was > 30 µM (inactive) each time.
Take `O=c1[nH]ccc2cc(OC3CCNCC3)ccc12` [SAR-407899 FREE BASE]: the Kd in assay [1], in assay [2], in assay [3], in assay [4], in assay [5] and in assay [6] was > 30 µM (inactive) throughout. The Kd in assay [7] and in assay [8] was > 30 µM (inactive) in each case.
As to `CN1CCN(CCOc2cc(OC3CCOCC3)c3c(Nc4c(Cl)ccc5c4OCO5)ncnc3c2)CC1` [SARACATINIB], the Kd in assay [1], in assay [2], in assay [3], in assay [4], in assay [5] and in assay [6] was > 30 µM (inactive) in each case. Besides, the Kd in assay [7] and in assay [8] was > 30 µM (inactive) each time.
With `Cn1cc(-c2cnn3c(N)c(Br)c([C@@H]4CCCNC4)nc23)cn1` [SCH-900776], the Kd in assay [1], in assay [2], in assay [3], in assay [4], in assay [5] and in assay [6] was > 30 µM (inactive) throughout. In addition, the results for the Kd in assay [7] and in assay [8] were 6.41 µM (active) and > 30 µM (inactive), respectively.
`CO[C@H]1C[C@@H]2CC[C@@H](C)[C@@](O)(O2)C(=O)C(=O)N2CCCC[C@H]2C(=O)O[C@H]([C@H](C)C[C@@H]2CC[C@@H](O)[C@H](OC)C2)CC(=O)[C@H](C)/C=C(\C)[C@@H](O)[C@@H](OC)C(=O)[C@H](C)C[C@H](C)/C=C/C=C/C=C/1C` [SIROLIMUS]: the Kd in assay [1], in assay [2], in assay [3], in assay [4], in assay [5] and in assay [6] was > 30 µM (inactive) each time. In addition, the Kd in assay [7] and in assay [8] was > 30 µM (inactive) throughout.
With `CCS(=O)(=O)c1cccc(-c2cc(C(=O)NC3CCN(C)CC3)c(C)c3[nH]c4ncc(C)cc4c23)c1` [TAK-901], the Kd in assay [1], in assay [2], in assay [3], in assay [4], in assay [5] and in assay [6] was > 30 µM (inactive) each time. Besides, the Kd in assay [7] and in assay [8] was > 30 µM (inactive) in each case.

For the origin of these results see ChEMBL document CHEMBL3991601, “The target landscape of clinical kinase drugs” (Science, 2017).
